Assay results from US11091478B2 (Fochon Pharmaceuticals, Ltd., priority 2017, dated 2021).
pIC50: −log10 of the molar value.

Experiments:
DOHH2 cells = test: Cell proliferation assay (MTS), DOHH2 cells, 120 h; format: cell-based; conditions: Homo sapiens, DOHH-2, 120 h
Procedure, shortened: (§1)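 Proliferation was scored by MTS (2 h, then SDS stop, A490 with 650 nm reference) and IC50 derived. Compound ran at nine final concentrations from 1.5 to 10000 nM. DOHH2 were incubated 120 h and RS4;11 72 h, both plated at 5000 cells/well in RPMI-1640 plus 10% FBS.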

RS4;11 cells = test: Cell proliferation assay (MTS), RS4;11 cells, 72 h; format: cell-based; conditions: Homo sapiens, RS4-11, 72 h
Procedure, shortened: as §1

C[C@H]1CN(CC[C@H]2COc3cc(S(=O)(=O)NC(=O)c4ccc(N5CCN(CC6=C(c7ccc(Cl)cc7)CC(C)(C)CC6)CC5)cc4Oc4cnc5[nH]ccc5c4)cc([N+](=O)[O-])c3N2)CCN1C [Example 2-47, 2-((1H-pyrrolo[2,3-b]pyridin-5-yl)oxy)-4-(4-((4′-chloro-5,5-dimethyl-3,4,5,6-tetrahydro-[1,1′-biphenyl]-2-yl)methyl)piperazin-1-yl)-N-(((S)-3-(2-((S)-3,4-dimethylpiperazin-1-yl)ethyl)-5-nitro-3,4-dihydro-2H-benzo [b][1,4]oxazin-7-yl)sulfonyl)benzamide]
pIC50 (DOHH2 cells): 7.92 | pIC50 (RS4;11 cells): 7.66

CC1(C)CCC(CN2CCN(c3ccc(C(=O)NS(=O)(=O)c4cc5c(c([N+](=O)[O-])c4)N[C@@H](CCN4CCN(C6COC6)CC4)CO5)c(Oc4cnc5[nH]ccc5c4)c3)CC2)=C(c2ccc(Cl)cc2)C1 [Example 2-48, (S)-2-((1H-pyrrolo[2,3-b]pyridin-5-yl)oxy)-4-(4-((4′-chloro-5,5-dimethyl-3,4,5,6-tetra-hydro-[1,1′-biphenyl]-2-yl)methyl)piperazin-1-yl)-N-((5-nitro-3-(2-(4-(oxetan-3-yl)piper-azin-1-yl)ethyl)-3,4-dihydro-2H-benzo [b][1,4]oxazin-7-yl)sulfonyl)benzamide]
pIC50 (DOHH2 cells): 8.05 | pIC50 (RS4;11 cells): 7.85

C[C@@H]1CN(CC[C@H]2COc3cc(S(=O)(=O)NC(=O)c4ccc(N5CCN(CC6=C(c7ccc(Cl)cc7)CC(C)(C)CC6)CC5)cc4Oc4cnc5[nH]ccc5c4)cc([N+](=O)[O-])c3N2)CCN1C1COC1 [Example 2-49, 2-((1H-pyrrolo[2,3-b]pyridin-5-yl)oxy)-4-(4-((4′-chloro-5,5-dimethyl-3,4,5,6-tetrahydro-[1,1′-biphenyl]-2-yl)methyl)piperazin-1-yl)-N-(((S)-3-(2-((R)-3-methyl-4-(oxetan-3-yl)piperazin-1-yl)ethyl)-5-nitro-3,4-dihydro-2H-benzo[b][1,4]oxazin-7-yl)sulfonyl) benzamide]
pIC50 (DOHH2 cells): 7.92 | pIC50 (RS4;11 cells): 7.80

C[C@H]1CN(CC[C@H]2COc3cc(S(=O)(=O)NC(=O)c4ccc(N5CCN(CC6=C(c7ccc(Cl)cc7)CC(C)(C)CC6)CC5)cc4Oc4cnc5[nH]ccc5c4)cc([N+](=O)[O-])c3N2)CCN1C1COC1 [Example 2-50]
pIC50 (DOHH2 cells): 7.66 | pIC50 (RS4;11 cells): 8.05

C[C@H]1CN(CC[C@H]2COc3cc(S(=O)(=O)NC(=O)c4ccc(N5CCN(CC6=C(c7ccc(Cl)cc7)CC(C)(C)CC6)CC5)cc4Oc4cnc5[nH]ccc5c4)cc([N+](=O)[O-])c3N2)CCO1 [Example 2-51]
pIC50 (DOHH2 cells): 7.89 | pIC50 (RS4;11 cells): 8.00

C[C@@H]1CN(CC[C@H]2COc3cc(S(=O)(=O)NC(=O)c4ccc(N5CCN(CC6=C(c7ccc(Cl)cc7)CC(C)(C)CC6)CC5)cc4Oc4cnc5[nH]ccc5c4)cc([N+](=O)[O-])c3N2)CCO1 [Example 2-52, 2-((1H-pyrrolo[2,3-b]pyridin-5-yl)oxy)-4-(4-((4′-chloro-5,5-dimethyl-3,4,5,6-tetrahydro-[1,1′-biphenyl]-2-yl)methyl)piperazin-1-yl)-N-(((S)-3-(2-((R)-2-methylmorpholino)ethyl)-5-nitro-3,4-dihydro-2H-benzo[b][1,4]oxazin-7-yl)sulfonyl)benzamide]
pIC50 (DOHH2 cells): 7.51 | pIC50 (RS4;11 cells): 7.60

CC(=O)NC[C@H]1COc2cc(S(=O)(=O)NC(=O)c3ccc(N4CCN(CC5=C(c6ccc(Cl)cc6)CC(C)(C)CC5)CC4)cc3Oc3cnc4[nH]ccc4c3)cc([N+](=O)[O-])c2N1 [Example 2-53, (S)-2-((1H-pyrrolo[2,3-b]pyridin-5-yl)oxy)-N-((3-(acetamidomethyl)-5-nitro-3,4-dihydro-2H-benzo[b][1,4]oxazin-7-yl)sulfonyl)-4-(4-((4′-chloro-5,5-dimethyl-3,4,5,6-tetra-hydro-[1,1′-biphenyl]-2-yl)methyl)piperazin-1-yl)benzamide]
pIC50 (DOHH2 cells): 6.27 | pIC50 (RS4;11 cells): 7.28
